Measurements reported in patent US4737510A, “Bioactive metabolites from the caribbean sponge agelas coniferin” (priority 1986, dated 1988).
Where “and” joins values, the source holds several entries; their conditions need not be identical. Equal entries are not always repeated. Where two headings read alike, the source gives them in different places.

Tests used:
[1] = system: KB carcinoma; details: cited from earlier work
[2] = system: Escherichia coli; assay: Disc diffusion antimicrobial assay, Escherichia coli; format: cell-based; details: for zone of inhibition at 10 µg/disc / zone of inhibition at 50 µg/disc / zone of inhibition at 100 µg/disc: Escherichia coli, 6.5 mm disc, read-out: diameter of the clear zone of inhibition; for zone of inhibition at 50 µg/disc: 50 μg/disk
[3] = system: Bacillus subtilis; assay: Disc diffusion antimicrobial assay, Bacillus subtilis; format: cell-based; details: for zone of inhibition at 10 µg/disc / zone of inhibition at 50 µg/disc / zone of inhibition at 100 µg/disc: Bacillus subtilis, 6.5 mm disc, read-out: diameter of the clear zone of inhibition; for zone of inhibition at 50 µg/disc: 50 μg/disk; for zone of inhibition at 100 µg/disc: 100 μg/disk
[4] = system: Herpes simplex virus, type I (HSV-1); assay: microbe, parasite or virus in culture; format: cell-based; details: for zone of inhibition at 20 µg/disc / zone of inhibition at 50 µg/disc / zone of inhibition at 100 µg/disc / zone of inhibition at 200 µg/disc: Human alphaherpesvirus 1, in Primates
[5] = system: vesicular stomatitis virus (VSV); assay: microbe, parasite or virus in culture; format: cell-based; details: for zone of inhibition at 200 µg/disc / zone of inhibition at 20 µg/disc / zone of inhibition at 50 µg/disc / zone of inhibition at 100 µg/disc: Vesicular stomatitis virus, in Primates
[6] = system: Herpes Simplex Virus type 1 (HSV-1); assay: Antiviral activity against HSV-1 determined by Dr. R. G. Hughes, Jr.;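 also: grades: +++ strong ++ moderate + light ± questionable - negative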; format: cell-based
[7] = system: vesicular stomatitus virus (VSV); format: cell-based; details: 100 μg/disk
[8] = system: E. coli strain BR339; format: cell-based
[9] = Stability of isolated solids; format: physicochemical; details: diacetate salts, amorphous solids
[10] = Water solubility (in words); format: physicochemical; details: relative to 1a-6a
[11] = system: monkey kidney (CV-1) cells; assay: Cytotoxicity to monkey kidney (CV-1) cells
[12] = system: Monkey Kidney Cells (CV-1); assay: Cytotoxicity to monkey kidney cells (CV-1) determined by Dr. R. G. Hughes, Jr.; details: 8 or less essentially indicates noncytotoxicity
[13] = system: serotonergic receptor; details: cited from earlier work
[14] = system: Balanus amphitrite amphitrite; assay: Barnacle settlement assay, inhibition; format: in vivo, Balanus amphitrite amphitrite (barnacle); details: Amphibalanus amphitrite
[15] = system: Balanus amphitrite amphitrite; assay: Barnacle settlement assay, facilitation; format: in vivo, Balanus amphitrite amphitrite (barnacle); details: Amphibalanus amphitrite
[16] = read-out: antiviral activity, HSV-1, ++ scale
[17] = read-out: antiviral activity, HSV-1, zone diameter
[18] = read-out: antiviral activity, VSV, ++ scale
[19] = read-out: antiviral activity, VSV, zone diameter

Structure (SMILES): N=C(N)NC(=O)c1cc(Br)c[nH]1 [N-amidino-4-bromopyrrole-2-carboxamide]
- effect on KB carcinoma [1]: KB carcinoma-altering

Structure (SMILES): NC1=NC(=O)C(C2C(CNC(=O)c3ccc[nH]3)C(CNC(=O)c3cc(Br)c[nH]3)C2c2cnc(N)[nH]2)N1 (centres unmarked) [Compound 7a, Debromooxysceptrin Acetate]
- activity against Escherichia coli ([2]; 100 μg/disk): inactive
- zone of inhibition at 10 µg/disc ([2]; 10 μg/disk): 0 mm
- zone of inhibition at 50 µg/disc [2]: 0 mm
- zone of inhibition at 100 µg/disc ([2]; 100 μg/disk): 0 mm
- zone of inhibition at 10 µg/disc ([3]; 10 μg/disk): 0 mm
- zone of inhibition at 50 µg/disc [3]: 7 mm
- zone of inhibition at 100 µg/disc [3]: 8 mm
- activity against HSV-1 [4]: essentially inactive
- antiviral zone appearance [4]: diffuse zones
- zone of inhibition at 20 µg/disc [4, 16]: < 7 mm
- zone of inhibition at 50 µg/disc [4, 16]: < 7 mm
- zone of inhibition at 100 µg/disc [4, 16]: < 7 mm
- zone of inhibition at 200 µg/disc [4, 16]: 8 to 10 mm
- zone of inhibition at 20 µg/disc [4, 17]: 0 mm
- zone of inhibition at 50 µg/disc [4, 17]: 0 mm
- zone of inhibition at 100 µg/disc [4, 17]: 0 mm
- activity against VSV ([5]; 200 μg/disk): essentially inactive
- zone of inhibition at 200 µg/disc [5, 18]: < 7 mm
- zone of inhibition at 200 µg/disc [5, 19]: 0 mm
- HSV-1 activity ([6]; 25 μg/disk): -
- HSV-1 activity ([6]; 50 μg/disk): -
- HSV-1 activity ([6]; 100 μg/disk): -
- VSV activity [7]: ±
- BIA activity [8]: somewhat less active
- BIA activity, numerical color intensity scale 0-10 [8]: 4
- BIA zone appearance [8]: more diffuse zone
- stability [9]: stable
- water solubility [10]: more water soluble
- traces of cytotoxicity, zone ([11]; 200 μg/disk): ≤ 8 mm
- cytotoxicity, zone diameter ([12]; 25 μg/disk): 5 mm
- cytotoxicity, zone diameter ([12]; 50 μg/disk): 5 mm
- cytotoxicity, zone diameter ([12]; 100 μg/disk): 6 mm

Structure (SMILES): Cn1c(/C=C\CNC(=O)c2cc(Br)c[nH]2)cnc1N [Keramidine]
- serotonergic receptor activity [13]: serotonergic receptor antagonist

Structure (SMILES): Nc1ncc([C@@H]2[C@@H](CNC(=O)c3cc(Br)c[nH]3)[C@H](CNC(=O)c3cc(Br)c[nH]3)[C@H]2c2cnc(N)[nH]2)[nH]1 (relative stereo) [Compound 2a, Sceptrin Acetate]
- activity against Escherichia coli ([2]; 10 μg/disk): active
- zone of inhibition at 10 µg/disc ([2]; 10 μg/disk): 7 mm
- zone of inhibition at 50 µg/disc [2]: 10 mm
- zone of inhibition at 100 µg/disc ([2]; 100 μg/disk): 11 mm
- growth inhibition of Bacillus subtilis ([3]; 10 μg/disk): most active
- zone of inhibition at 10 µg/disc ([3]; 10 μg/disk): 9 mm
- zone of inhibition at 50 µg/disc [3]: 16 mm
- zone of inhibition at 100 µg/disc [3]: 17 mm
- zone of inhibition at 20 µg/disc [4, 16]: 11 to 15 mm
- zone of inhibition at 50 µg/disc [4, 16]: 11 to 15 mm
- zone of inhibition at 100 µg/disc [4, 16]: 11 to 15 mm
- zone of inhibition at 200 µg/disc [4, 16]: > 16 mm
- zone of inhibition at 20 µg/disc [4, 17]: 11 mm
- zone of inhibition at 50 µg/disc [4, 17]: 13 mm
- zone of inhibition at 100 µg/disc [4, 17]: 13 mm
- zone of inhibition at 200 µg/disc [4, 17]: 21 mm
- zone of inhibition at 20 µg/disc [5, 18]: 7 mm
- zone of inhibition at 50 µg/disc [5, 18]: 8 to 10 mm
- zone of inhibition at 100 µg/disc [5, 18]: 11 to 15 mm
- zone of inhibition at 200 µg/disc [5, 18]: 11 to 15 mm
- zone of inhibition at 20 µg/disc [5, 19]: 7 mm
- zone of inhibition at 50 µg/disc [5, 19]: 8 mm
- zone of inhibition at 100 µg/disc [5, 19]: 11 mm
- zone of inhibition at 200 µg/disc [5, 19]: 13 mm
- HSV-1 activity ([6]; 25 μg/disk): -
- HSV-1 activity ([6]; 50 μg/disk): +++
- HSV-1 activity ([6]; 100 μg/disk): ++
- BIA activity [8]: inducers
- BIA activity, numerical color intensity scale 0-10 [8]: 9 and 6
- EC50 [14]: 44 µg/mL
- EC50 [15]: 0.029 µg/mL
- cytotoxicity, zone diameter ([12]; 25 μg/disk): 5 mm
- cytotoxicity, zone diameter ([12]; 50 μg/disk): 5 mm
- cytotoxicity, zone diameter ([12]; 100 μg/disk): 7 mm

Structure (SMILES): Nc1ncc(C2c3nc(N)[nH]c3CC(CNC(=O)c3cc(Br)c(Br)[nH]3)C2CNC(=O)c2cc(Br)c(Br)[nH]2)[nH]1 (centres unmarked) [Compound 6a, Dibromoageliferin Acetate]
- zone of inhibition at 10 µg/disc ([2]; 10 μg/disk): 0 mm
- zone of inhibition at 50 µg/disc [2]: 7 mm
- zone of inhibition at 100 µg/disc ([2]; 100 μg/disk): 7 mm
- zone of inhibition at 10 µg/disc ([3]; 10 μg/disk): 8 mm
- zone of inhibition at 50 µg/disc [3]: 9 mm
- zone of inhibition at 100 µg/disc [3]: 9 mm
- zone of inhibition at 20 µg/disc [4, 16]: 8 to 10 mm
- zone of inhibition at 50 µg/disc [4, 16]: 11 to 15 mm
- zone of inhibition at 100 µg/disc [4, 16]: 11 to 15 mm
- zone of inhibition at 200 µg/disc [4, 16]: 11 to 15 mm
- zone of inhibition at 20 µg/disc [4, 17]: 9 mm
- zone of inhibition at 50 µg/disc [4, 17]: 11 mm
- zone of inhibition at 100 µg/disc [4, 17]: 11 mm
- zone of inhibition at 200 µg/disc [4, 17]: 12 mm
- zone of inhibition at 20 µg/disc [5, 18]: < 7 mm
- zone of inhibition at 50 µg/disc [5, 18]: 8 to 10 mm
- zone of inhibition at 100 µg/disc [5, 18]: 8 to 10 mm
- zone of inhibition at 200 µg/disc [5, 18]: 8 to 10 mm
- zone of inhibition at 20 µg/disc [5, 19]: 0 mm
- zone of inhibition at 50 µg/disc [5, 19]: 8 mm
- zone of inhibition at 100 µg/disc [5, 19]: 9 mm
- zone of inhibition at 200 µg/disc [5, 19]: 10 mm
- HSV-1 activity ([6]; 25 μg/disk): -
- HSV-1 activity ([6]; 50 μg/disk): ±
- HSV-1 activity ([6]; 100 μg/disk): ±
- BIA activity, numerical color intensity scale 0-10 [8]: 2
- traces of cytotoxicity, zone ([11]; all concentrations (200, 100, 50, 20 μg/disk)): ≤ 8 mm
- cytotoxicity, zone diameter ([12]; 25 μg/disk): 6 mm
- cytotoxicity, zone diameter ([12]; 50 μg/disk): 8 mm
- cytotoxicity, zone diameter ([12]; 100 μg/disk): 10 mm
